Reference: patent US11155546B2, “4,6,7-trisubstituted 1,2-dihydropyrrolo[3,4-c]pyridin/pyrimidin-3-one derivatives and uses thereof” (SHANGHAI HAIYAN PHARMACEUTICAL TECHNOLOGY CO., LTD., priority 2017, dated 2021)

Key:
BTK WT = BTK WT (Homo sapiens (Human), UniProt Q06187); assay: Lantha screening kinase reaction, inhibition of BTK WT; format: biochemical
Description: The compound was predissolved in 100% DMSO. 10 mM drug stock solution was obtained by dissolution at room temperature and then serially diluted with 8 vol % DMSO solution to a final concentration of 10-0.005 μM. […] Among the wells, the kinase in the blank well was replaced with a reaction buffer and the kinase well (Enzyme) was not added with any drug. After shaking at 25° C. for 60 minutes in the dark, 10 μl of Detection Solution (mixture of Invitrogen PV3528 and EDTA, which was diluted with TR-FRET dilution buffer, the working concentration of EDTA was 5 mM, the working concentration of Lanthascreening Tb PY20 antibody was 0.2 nM) was added and shaken at room temperature for 30 minutes. The plates were read on a VictorX5 fluorescent plate reader (PerkinElmer) and the light absorption at an excitation wavelength of 340 nm and emission wavelengths of 500 nm and 520 nm was measured.
The calculation method for the inhibition ratio (referring to the specification of Invitrogen, PV3363) was as follows: Emission ratio (ER):Coumarin Emission (520 nm)/Fluorescein Emission (500 nm) 1. The inhibition ratio (IR):(ERkinase−ERtest compound)/(ERkinase−ERblank)×100%. 2.
The half-inhibitory concentration IC50 was calculated by fitting with XLFIT5.0 software (IDBS, UK).

βBTK Y223 = βBTK Y223 (Homo sapiens (Human), UniProt Q06187); assay: Intracellular βBTK Y223 phosphorylation HTRF in Ramos cells; format: cell-based
Chain of βBTK Y223 (Q06187 whole entry): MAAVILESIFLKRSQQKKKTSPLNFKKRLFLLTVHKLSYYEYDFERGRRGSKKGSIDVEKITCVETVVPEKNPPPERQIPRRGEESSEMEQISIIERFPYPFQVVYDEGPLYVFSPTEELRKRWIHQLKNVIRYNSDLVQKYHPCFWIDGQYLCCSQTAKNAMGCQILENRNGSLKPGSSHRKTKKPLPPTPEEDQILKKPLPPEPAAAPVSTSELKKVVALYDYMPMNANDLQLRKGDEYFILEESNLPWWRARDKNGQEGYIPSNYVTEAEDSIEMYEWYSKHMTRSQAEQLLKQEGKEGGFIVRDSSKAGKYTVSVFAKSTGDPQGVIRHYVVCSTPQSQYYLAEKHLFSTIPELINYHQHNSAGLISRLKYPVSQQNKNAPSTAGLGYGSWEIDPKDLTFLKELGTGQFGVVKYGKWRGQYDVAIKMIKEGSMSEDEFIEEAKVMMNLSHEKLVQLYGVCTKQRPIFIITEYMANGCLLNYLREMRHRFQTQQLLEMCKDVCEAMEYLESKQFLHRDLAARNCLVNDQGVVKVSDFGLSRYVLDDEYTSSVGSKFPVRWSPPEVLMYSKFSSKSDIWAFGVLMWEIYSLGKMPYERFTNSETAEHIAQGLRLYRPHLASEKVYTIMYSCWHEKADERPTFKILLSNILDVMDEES
Description: The compound was predissolved in 100% DMSO. […] 20 μl of lysate (4× lysate: blocked mother liquor is 25:1) was added to each well and incubated for 30 minutes at 25° C. on a shaker. It was shaken on an oscillator at 800 rpm for 1 minute. […] The half-inhibitory concentration IC50 was calculated by fitting with XLFIT 5.0 software (IDBS, UK).

wild-type EGFR kinase = wild-type EGFR kinase (Homo sapiens (Human), UniProt P00533); assay: Wild type EGFR kinase inhibition test (z-lyte); format: biochemical; conditions: 10 μM ATP; read-out: EGFR WT IC50
Chain of wild-type EGFR kinase (P00533 25-1210): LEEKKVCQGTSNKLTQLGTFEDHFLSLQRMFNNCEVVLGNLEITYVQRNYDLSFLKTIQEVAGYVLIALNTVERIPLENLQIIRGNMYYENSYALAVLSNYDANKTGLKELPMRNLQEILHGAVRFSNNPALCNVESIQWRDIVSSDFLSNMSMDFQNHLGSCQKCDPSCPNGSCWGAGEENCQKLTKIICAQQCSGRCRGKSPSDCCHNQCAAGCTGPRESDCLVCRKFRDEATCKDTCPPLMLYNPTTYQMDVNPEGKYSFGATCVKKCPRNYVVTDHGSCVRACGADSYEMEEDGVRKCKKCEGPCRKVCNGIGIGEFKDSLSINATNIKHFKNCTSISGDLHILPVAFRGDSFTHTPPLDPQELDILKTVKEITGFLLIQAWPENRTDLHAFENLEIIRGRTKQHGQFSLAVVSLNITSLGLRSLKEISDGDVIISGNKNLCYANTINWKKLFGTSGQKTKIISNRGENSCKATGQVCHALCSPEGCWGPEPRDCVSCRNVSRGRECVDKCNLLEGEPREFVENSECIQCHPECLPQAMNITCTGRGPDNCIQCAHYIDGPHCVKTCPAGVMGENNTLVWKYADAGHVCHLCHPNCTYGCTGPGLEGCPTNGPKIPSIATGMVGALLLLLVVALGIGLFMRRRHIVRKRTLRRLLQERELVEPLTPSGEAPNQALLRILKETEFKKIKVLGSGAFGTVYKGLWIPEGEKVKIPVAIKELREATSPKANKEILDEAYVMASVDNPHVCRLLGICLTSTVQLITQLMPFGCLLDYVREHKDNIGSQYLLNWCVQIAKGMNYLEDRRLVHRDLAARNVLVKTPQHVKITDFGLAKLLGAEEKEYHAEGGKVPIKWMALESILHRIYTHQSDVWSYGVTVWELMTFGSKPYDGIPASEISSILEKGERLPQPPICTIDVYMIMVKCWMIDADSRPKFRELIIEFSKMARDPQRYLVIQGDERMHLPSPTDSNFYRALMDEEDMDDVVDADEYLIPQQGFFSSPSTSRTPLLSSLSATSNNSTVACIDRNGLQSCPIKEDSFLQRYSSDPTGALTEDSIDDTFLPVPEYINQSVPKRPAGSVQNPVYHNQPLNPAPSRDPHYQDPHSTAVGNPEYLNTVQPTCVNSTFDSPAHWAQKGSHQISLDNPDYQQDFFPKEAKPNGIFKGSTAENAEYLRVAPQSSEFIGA
Text: All the following reagents used in z-lyte test are commercially available from Invitrogen.
The calculation method for the inhibition ratio (referring to the specification of Invitrogen, PV3363) was as follows: ER=Coumarin Emission(450 nm)/Fluorescein Emission(520 nm) 1. Phosphorylation ratio=(1−((ER×C3520nm−C3450nm)/((C1450nm−C3450nm)+ER×(C3520nm−C1520nm))))×100% 2. Inhibition ratio (IR)=(1−phosphorylation ratio of the test compound)/(phosphorylation ratio of C2))×100% 3.
The half-inhibitory concentration IC50 was calculated by fitting with XLFIT 5.0 software (IDBS, UK).

in vivo = conditions: mouse, in vivo, po, 30 mg/kg
Description: Test Animals: ICR mice, weight 28-30 g, male, totally 12, purchased from SLAC Laboratory Animal Co., Ltd. Mice were fasting one night before administration and freely fed 4 hours after administration.
Administration and Blood collection: 6 mice were administered intragastrically (PO) in a administered dosage of 30 mg/kg and a administered volume of 10 mL/kg. One administration route was subjected with 6 mice, blood samples of three mice were collected at one time point, and blood samples of another three mice were collected at alternate time point alternately. Blood was collected at 8 time points of 0.083, 0.25, 0.5, 1, 2, 4, 8, 24 h after administration respectively.
Animals were manually controlled at the time of collection and approximately 80 μL of blood was collected from the mice fundus venous plexus into a tube containing K2EDTA. The collected blood sample was put on wet ice, centrifuged within 15 min (8000 rpm, 4 min at 4° C.), and then the plasma sample was taken and stored at minus 20° C. till analysis. The compounds were prepared on the day of the experiment.
Solvent excipient information: DMSO (brand: Sigma, batch number: SHBD2446V); 2-hydroxypropyl-3-cyclodextrin (brand: Sigma, batch number: BCBN8227V), acetic acid (brand: Sinopharm Group, batch number: 20150616), sodium acetate (Brand: GENERAL-REAGENT, batch number: P1246037).
Preparation of a 3 mg/mL PO dosing solution: the solvent was a solution of 5% DMSO and 95% PH4.5 (sodium acetate-acetate) in 20% of 2-hydroxypropyl-β-cyclodextrin.
Analytical method: Plasma samples were analyzed by liquid chromatography-tandem mass spectrometry (Instrument type: Triple Quad™ 4000).
Preparation of the standard curve: preparing a standard curve of the test compound 1n the plasma matrix of ICR mice with a linear range of 1.00-3000 ng/mL, and preparing control samples at low, medium and high concentrations of 3 ng/mL, 500 ng/mL, and 2400 ng/mL respectively.
Treatment of biological samples: the frozen plasma samples were thawed on ice, and after the samples were thawed, they were vortexed on a vortex for 5 min. 20 μL of plasma sample was added to a 96-well plate, and 200 μL of acetonitrile (brand: Merck, Lot: 1854029643) containing an internal standard dexamethasone (Brand: NIFDC, Lot: 1N2V-DPGY, 2000 ng/mL) was added to precipitate protein, which were vortexed for 5 min, and then centrifuged at 3700 rpm and 4° C. for 15 min. The supernatant was extracted and twice centrifuged under the same conditions, and finally 2 μL of the supernatant solution was analyzed by LC-MS/MS.

Chain of BTK WT (Q06187 whole entry): as the sequence (Q06187 whole entry) above

| SMILES | IC50 (BTK WT) [nM] | IC50 (βBTK Y223) [nM] | IC50 (wild-type EGFR kinase) [nM] | other results |
| --- | --- | --- | --- | --- |
| C=CC(=O)N1CC2CN(c3nc(Nc4cnn(C)c4)c4c(c3F)CNC4=O)CC2C1 (stereo not shown) [Compound G-76] | 0.8 | 2 | 1360 |  |
| C=CC(=O)N1CCCCC(Nc2nc(Nc3ccc(OCCOC)cc3)c3c(c2F)CNC3=O)C1 (stereo not shown) [Compound G-3, 6-(1-acryloylazacycloheptane-3-ylamino)-7-fluoro-4-(4-(2-methoxyethoxy)phenylamino)-1H-pyrrolo[3,4-c]pyridine-3 (2H)-one] | 2 | 11 | 2290 |  |
| C=CC(=O)N1CCCC(Nc2nc(Nc3ccc(OCCOC)cc3)c3c(c2F)CNC3=O)CC1 (stereo not shown) [Compound G-4] | 7 | 23 | 2370 |  |
| C=CC(=O)NC1CN(c2nc(Nc3cnn(C)c3)c3c(c2F)CNC3=O)C1 [Compound G-85, N-(1-(7-fluoro-4-(1-methyl-1H-pyrazol-4-ylamino)-3-oxo-2,3-dihydro-1H-pyrrolo[3,4-c]pyridin-6-yl)azetidin-3-yl)acrylamide] | 32 | 43 | 1120 |  |
| C=CC(=O)N1CCCC(Nc2nc(Nc3cnn(C4CN(C)CC4F)c3)c3c(c2F)CNC3=O)C1 (stereo not shown) [Compound G-15] | 3 | 5 | 1220 |  |
| C=CC(=O)N1CC(Nc2nc(Nc3ccc(OCCOC)cc3)c3c(c2F)CNC3=O)C1 [Compound G-5] | 48 | 59 | 1910 |  |
| C=CC(=O)N1CCCC(Nc2nc(Nc3ccc(N4CCOCC4C)c(F)c3)c3c(c2F)CNC3=O)C1 (stereo not shown) [Compound G-42] | 5 |  | 5190 | Area under curve AUC (in vivo): 1266 ng·h/mL; Maximum blood concentration Cmax (in vivo): 945.0 ng/mL; Oral relative bioavailability F (%) (in vivo): 12.3%; Tmax (in vivo): 15 min; half-time T1/2 (in vivo): 104 min |
| C=CC(=O)N1CCCC(Nc2nc(-c3cnn(C)c3)c3c(c2F)CNC3=O)C1C (stereo not shown) [Compound G-51] | 62 | 80 | 6820 |  |
| C=CC(=O)N1CCCC(Nc2nc(-c3cnn(C4CC4)c3)c3c(c2F)CNC3=O)C1 (stereo not shown) [Compound G-45] | 69 | 109 |  |  |
| C=CC(=O)N(C)C1CCN(c2nc(Nc3cnn(C)c3)c3c(c2F)CNC3=O)C1 (stereo not shown) [Compound G-88, N-(1-(7-fluoro-4-(1-methyl-1H-pyrazol-4-ylamino)-3-oxo-2,3-dihydro-1H-pyrrolo[3,4-c]pyridin-6-yl)pyrrolidine-3-yl)-N-methyl acrylamide] | 17 | 56 | 1050 |  |
| C=CC(=O)N1CCCC(Nc2nc(Nc3cnn(C4CCOCC4)c3)c3c(c2F)CNC3=O)C1 (stereo not shown) [Compound G-10] | 3 | 7 | 1740 |  |
| C=CC(=O)N1CCCC(N(C)c2nc(-c3cnn(C(F)F)c3)c3c(c2F)CNC3=O)C1 (stereo not shown) [Compound G-63, 6-((1-acryloylpiperidin-3-yl)(methyl)amino)-4-(1-(difluoromethyl)-1H-pyrazole-4-yl)-7-fluoro-1H-pyrrolo[3,4-c]pyridine-3(2H)-one] | 25 | 50 | > 10000 |  |
| C=CC(=O)N1CCC(Nc2nc(Nc3ccc(OCCOC)cc3)c3c(c2F)CNC3=O)CC1 [Compound G-6] |  | 29 |  |  |
| C=CC(=O)N1CCCC(Nc2nc(Nc3ccc(N4CCN(C)CC4)cc3)c3c(c2F)CNC3=O)C1 (stereo not shown) [Compound G-11] | 1 | 2 | 4250 |  |
| C=CC(=O)N1CCCC(Nc2nc(Nc3ccc(N4CCOCC4=O)cc3)c3c(c2F)CNC3=O)C1 (stereo not shown) [Compound G-17] | 2 | 16 | 1500 |  |
| C=CC(=O)N1CCCC(Nc2nc(-c3cnn(C(F)F)c3)c3c(c2F)CNC3=O)C1 (stereo not shown) [Compound G-48] |  | 62 |  |  |
| C=CC(=O)N1CCCC(Nc2nc(Nc3ccc(N4CCN(C5COC5)CC4C)cc3)c3c(c2F)CNC3=O)C1 (stereo not shown) [Compound G-34] | 5 |  | 3170 | Area under curve AUC (in vivo): 1869 ng·h/mL; Maximum blood concentration Cmax (in vivo): 1990.0 ng/mL; Oral relative bioavailability F (%) (in vivo): 28.6%; Tmax (in vivo): 4.8 min; half-time T1/2 (in vivo): 86.4 min |
| C=CC(=O)N1CC(Nc2nc(Nc3ccc(N4CCOCC4)cc3)c3c(c2F)CNC3=O)CCC1C (stereo not shown) [Compound G-28] | 5 | 10 | 2300 |  |
| C=CC(=O)N1CCCC(Nc2nc(Nc3ccc(N4CCOCC4)c(F)c3)c3c(c2F)CNC3=O)C1 (stereo not shown) [Compound G-33] | 5 |  | 7170 | Area under curve AUC (in vivo): 1193 ng·h/mL; Maximum blood concentration Cmax (in vivo): 964.0 ng/mL; Oral relative bioavailability F (%) (in vivo): 15.6%; Tmax (in vivo): 4.8 min; half-time T1/2 (in vivo): 71.4 min |
| C=CC(=O)N1CC(Nc2nc(Nc3ccc(N4CCOCC4)c(F)c3)c3c(c2F)CNC3=O)CCC1C (stereo not shown) [Compound G-41] | 2 | 3 |  |  |
| C=CC(=O)N1CCCC(Nc2nc(Nc3cc(C)ns3)c3c(c2F)CNC3=O)C1 (stereo not shown) [Compound G-23] | 5 |  | 1800 | Area under curve AUC (in vivo): 645 ng·h/mL; Maximum blood concentration Cmax (in vivo): 878.7 ng/mL; Oral relative bioavailability F (%) (in vivo): 14%; Tmax (in vivo): 4.8 min; half-time T1/2 (in vivo): 195 min |
| C=CC(=O)N1CCCC(Nc2nc(Nc3ccc(N4CCN(C)CC4)cn3)c3c(c2F)CNC3=O)C1 (stereo not shown) [Compound G-12] | 21 | 80 | 3850 |  |
| C=CC(=O)N1CCC2CN(c3nc(Nc4cnn(C)c4)c4c(c3F)CNC4=O)CC21 (stereo not shown) [Compound G-87] | 1 | 4 |  |  |
| C=CC(=O)N1CCC[C@@H](Nc2nc(-c3cnn(C)c3)c3c(c2F)CNC3=O)C1 [Compound G-111] | 69 |  | > 10000 | AUC (in vivo; male, ICR): 2180 ng·h/mL; Cmax (in vivo; male, ICR): 3490 ng/mL; Tmax (in vivo; male, ICR): 4.8 min; bioavailability (in vivo; male, ICR): 79.7%; half-life (in vivo; male, ICR): 356 min |
| C=CC(=O)N1CCCC(Nc2nc(Nc3cnn(C)n3)c3c(c2F)CNC3=O)C1 (stereo not shown) [Compound G-35] |  | 35 |  |  |
| C=CC(=O)N1CCCC(Nc2nc(Nc3ccc(N4CCOCC4C)cc3)c3c(c2F)CNC3=O)C1 (stereo not shown) [Compound G-32] | 5 |  | 5340 | Area under curve AUC (in vivo): 1463 ng·h/mL; Maximum blood concentration Cmax (in vivo): 837.7 ng/mL; Oral relative bioavailability F (%) (in vivo): 14.7%; Tmax (in vivo): 30 min; half-time T1/2 (in vivo): 72.6 min |
| C=CC(=O)N1CCC[C@H](Nc2nc(Nc3ccc(N4CCOCC4)cc3)c3c(c2F)CNC3=O)C1 [Compound G-114] | 34 |  | 4130 | AUC (in vivo; male, ICR): 1070 ng·h/mL; Cmax (in vivo; male, ICR): 1240 ng/mL; Tmax (in vivo; male, ICR): 4.8 min; bioavailability (in vivo; male, ICR): 13.7%; half-life (in vivo; male, ICR): 148 min |
